{"source": "patent US20090221538A1", "about": "“METHODS OF TREATING MULTIPLE SCLEROSIS BY ADMINISTERING PULSE DOSE CALCITRIOL” (priority 2008, published 2009)", "key": {"[1]": {"test_system": "B10.PL mice with acute EAE", "test": "Treatment of MBP-induced acute EAE in B10.PL mice, daily clinical EAE disability score", "format": "in vivo", "design": "key to cumulative disability (sum of daily disability scores; mean) / Cumulative disability / EAE severity (initial) / Remission (minimum) / EAE severity (final) / EAE severity (decrease): EAE score 0 = normal to 5 = moribund; cumulative = sum of daily scores", "experimental": "Breeding pairs of B10.PL-H2^uH2-T18^a/(73NS)/SnJ (hereafter B10.PL) mice were purchased from the Jackson Laboratory (Bar Harbor, Me.). The experimental B10.PL mice were either bred in the pathogen-free mouse colony at the University of Wisconsin Department of Biochemistry, or purchased from the Jackson Laboratory. Mice were housed at 23° C. with 40-60% humidity, 12 hr light-dark cycles, and ad libidum access to water. Unless stated otherwise, the mice were fed Lab Diet #5008 (PMI Nutrition International, Inc., Brentwood, Mo.) containing 0.33 μg/d vitamin D3 and 1% calcium. Experiments used male and female mice aged 6-8 wks (age- and sex-matched within experiments). The University of Wisconsin College of Agricultural and Life Sciences Institutional Animal Care and Use Committee approved all of the experimental protocols.\nBovine myelin basic protein (Sigma Chemical Co., St. Louis, Mo.) was dissolved at 2 mg/mL in 0.1 N acetic acid and emulsified with Complete Freund's adjuvant containing heat-killed Mycobacterium tuberculosis H37 Ra solution (Difco). Each mouse was injected subcutaneously with 0.1 mL emulsion in each hind flank (400 micrograms of MBP per mouse). On the day of immunization and again 2 days later, 200 nanograms of pertussis toxin was injected into the peritoneum. Thereafter, clinical EAE signs were scored daily as follows: 0, normal; 1, limp tail; 1.5, partial paralysis of one hind limb; 2, partial paralysis of both hind limbs; 2.5 partial paralysis of one hind limb and complete paralysis of one hind limb; 3, paralysis of both hind limbs; 4, hind and fore limb paralysis; 5, moribund.\nThe vitamin D3 and 1,25-(OH)2D3 were obtained from Sigma Chemical Co. The vitamin D3 was dissolved in safflower oil and stored in the dark at 5° C. The 1,25-(OH)2D3 was dissolved in 100% ethanol (1 mg/mL) and stored in the dark under nitrogen gas at −20° C. The concentration of 1,25-(OH)2D3 was determined by spectral analysis. Animals with stage 2.3±0.3 were randomized into treatment groups. The details of the treatments are given in the figure legends and table footnotes. The synthetic diet used in some experiments was formulated to contain all essential nutrients except vitamin D3 and was prepared exactly as we described (Spach and Hayes, 2005, J. Immunol. 175:4119-4126). For experiments using supplementary vitamin D3, the placebo group was fed the synthetic diet ad libidum without added vitamin D3, whereas the vitamin D3-supplemented group was fed the synthetic diet ad libidum with vitamin D3 added in an amount to provide 1 μg/d, calculated based on a daily measured consumption of 4.0 g dry weight of diet per mouse. Fresh synthetic diet was provided three times per week. At several times during the study, mice were weighed and blood samples were obtained from the tail vein. At the conclusion of the study, the mice were euthanized, a blood sample was obtained, perfusion was done, and the spinal cords and optic nerves were removed. The spinal cords were flash frozen with liquid nitrogen and stored at −70° C. prior to 1,25-(OH)2D3 extraction. Alternatively, the spinal cords were divided into 6 equal sections, aligned vertically, snap frozen in O.C.T. compound (Sakura Finetek USA, Torrance, Calif.) and stored at −70° C. for histopathology. The blood was clotted, centrifuged, and the decanted serum was frozen at −70° C. prior to analysis.\nIndividual mice were analyzed and the mean and SD were calculated for each group of mice. Experiments were repeated at least once. The significance of differences between the group means was determined using the Mann-Whitney test (n≦16), Student's t-test (n>16), or Chi-squared test (binomial data); p<0.05 was considered significant."}, "Serum calcium analysis": {"test": "Serum calcium analysis", "format": "in vivo, mouse", "conditions": "mice with EAE, 1 μg/day vitamin D3, end of the 28 day study", "experimental": "Blood was collected, clotted, and centrifuged (2,000×g for 10 min) at 6° C. The serum was decanted and stored at −20° C. The samples, standards, and buffer blanks (2 μL each) were aliquoted into duplicate wells of a 96-well plate. The calcium detection reagent was prepared according to the manufacturer's directions (Sigma Diagnostics. St. Louis, Mo.), and 0.25 mL was added to each well. The absorbance at 570 nm less the blank was measured 10 to 30 min later. The Ca^++ mmol/L serum was determined from a standard curve."}, "[2]": {"test": "Serum 25-(OH)D3 radioimmunoassay", "conditions": "mice with EAE (score 1.5±0.5), 1 μg/day vitamin D3, end of the 28 day study"}, "MS": {"test_system": "MS", "conditions": "cited from earlier work"}, "[3]": {"conditions": "female and male B10.PL mice, chow-fed, 0.5 (female) or 1.0 (male) nmol injected once, 14 days post treatment"}}}
{"compound": "C=C1CC[C@H](O)C/C1=C/C=C1\\CCC[C@]2(C)[C@@H]([C@H](C)CCCC(C)C)CC[C@@H]12", "note": "[vitamin D3]", "values": [{"measurement": "effect on clinical disability in mice with EAE", "setting": "[1]; 1 μg/day vitamin D3, 28 day study", "result": "no effect"}, {"measurement": "cumulative disability (sum of daily disability scores; mean)", "setting": "[1]; mice with EAE, 1 μg/day vitamin D3, 28 day study, both groups", "result": "71±18"}, {"measurement": "mortality", "setting": "[1]; mice with EAE, 1 μg/day vitamin D3, 28 day study, both groups (supplemented and un-supplemented)", "result": "9-14%"}, {"measurement": "serum calcium levels", "setting": "Serum calcium analysis", "result": "9.6 ± 1.5", "unit": "mg/dL"}, {"measurement": "serum 25-(OH)D3", "setting": "[2]", "result": 8217, "unit": "nmol/L"}]}
{"compound": "Natalizumab: an integrin-specific monoclonal antibody (mAb)", "values": [{"measurement": "adverse risks", "setting": "MS; human, in vivo", "result": "increased the risk of cardiac problems and fatal progressive multifocal leukoencephalopathy"}, {"measurement": "slowing of disability progression", "setting": "MS; over two years", "result": "~42", "unit": "%"}]}
{"compound": "C[C@H]1C[C@@H]2[C@H]([C@@H](O)C[C@@]3(C)[C@H]2CC[C@]3(O)C(=O)CO)[C@@]2(C)C=CC(=O)C=C12", "note": "[Methyl-prednisolone]", "values": [{"measurement": "mice in which remission was induced", "setting": "[1]; chow-fed male and female mice with EAE (score 2.3±0.4), 200 μg/d oral methyl-prednisolone", "result": 100, "unit": "%"}, {"measurement": "time to remission", "setting": "[1]; chow-fed male and female mice with EAE, 200 μg/d oral methyl-prednisolone", "result": "6 ± 2", "unit": "days"}, {"measurement": "Cumulative disability", "setting": "[1]; [3]", "result": "24.8 ± 6.9"}, {"measurement": "EAE severity (decrease)", "setting": "[1]; [3]", "result": "0.8 ± 0.7"}, {"measurement": "Remission (%)", "setting": "[1]; [3]", "result": 40, "unit": "%"}, {"measurement": "Remission (days in)", "setting": "[1]; [3]", "result": "3.0 ± 4.1", "unit": "days"}, {"measurement": "Remission (days to)", "setting": "[1]; [3]", "result": "3.0 ± 0.0", "unit": "days"}, {"measurement": "EAE severity (initial)", "setting": "[1]; female and male B10.PL mice, chow-fed, 0.5 (female) or 1.0 (male) nmol of steroid compound injected once, score at randomization", "result": "2.0 ± 0.0"}]}
{"compound": "glatiramer acetate", "values": [{"measurement": "disability progression", "setting": "MS; RRMS, PPMS or SPMS patients", "result": "did not slow disability progression"}, {"measurement": "reduction of the relapse rate", "setting": "MS; some relapsing-remitting MS (RRMS)", "result": "~35", "unit": "%"}]}
